From patent US6933131B2, “Nucleic acids encoding insect acetylcholine receptor subunits” (Bayer Aktiengesellschaft, priority 1998, dated 2005)

Tested on: acetylcholine receptors according to the invention (recombinantly modified HEK293 cells of Example 2)
Settings: nicotine final concentration 500 μM; HEK293 cells expressing the α subunit of an L-type Ca channel, recombinantly modified as in Example 2; FIG. 1
Procedure: Cells were loaded with Fura-2-acetoxymethyl ester (5-10 μM in serum-free minimal essential medium containing 1% bovine serum albumin and 5 mM calcium chloride), washed with Tyrode solution buffered with N-(2-hydroxyethyl)piperazine-N′-(2-ethanesulphonic acid) (5 mM HEPES) and alternately illuminated, under a fluorescence microscope (Nikon Diaphot) with light of 340 nm and 380 nm wavelength. A measurement point corresponds to a pair of video images at the two wavelengths (exposure time per image, 100 ms). The time interval between two measurement points is 3 s. […] The fluorescence intensity of the cells when illuminated with light of 380 nm wavelength was divided by the corresponding intensity at 340 nm, thereby giving the ratio.
HEK293 cells, which express the α subunit of an L-type Ca channel (Zong et al. 1995, Stetzer et al. 1996), were cultured in Dulbecco's modified Eagle's medium and 10% foetal calf serum at 5% CO2 and from 20° C. to 37° C. […] Individual resistant clones were analyzed as described below.
The alterations in the intracellular calcium concentration were measured using Fura-2. […] 100 μl Tyrode buffer were added to the wells of the microtitre plate and the cells were illuminated alternately, under a fluorescence microscope (Nikon Diaphot), with light of 340 nm and 380 nm wavelength. […]

SMILES: CN1CCCC1c1cccnc1 (stereo not shown) [nicotine]
- change in intracellular calcium (Fura-2 fluorescence ratio 380 nm/340 nm) following the addition of nicotine: increase in intracellular calcium
